According to the supplement of paper PMC10307832:

Assays:
Test in all cases: relative viability (nuclei count vs DMSO), 5 days (fraction); higher = more cells survive
BI-D1870 + Linsitinib = compound: CC(C)CCN1c2nc(Nc3cc(F)c(O)c(F)c3)ncc2N(C)C(=O)C1C [BI-D1870] + C[C@]1(O)C[C@@H](c2nc(-c3ccc4ccc(-c5ccccc5)nc4c3)c3c(N)nccn32)C1 [Linsitinib] (partner 1 µM)
In short: (§1)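 Values are medians from duplicate plates. Each reflects relative viability, defined as the nuclei count of treated wells over that of vehicle wells. Lung cancer cell lines in 1536-well plates were pin-tool dosed one day after seeding with one drug alone or with a fixed anchor-drug dose plus five library-drug doses (not always all listed) in √10 steps, then fixed, stained and imaged at 4× after 5 days.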

Zebularine + Crizotinib = compound: O=c1ncccn1[C@@H]1O[C@H](CO)[C@@H](O)[C@H]1O [Zebularine] + C[C@@H](Oc1cc(-c2cnn(C3CCNCC3)c2)cnc1N)c1c(Cl)ccc(F)c1Cl [Crizotinib] (partner 1 µM)
In short: as §1

Zebularine + Pemetrexed = compound: O=c1ncccn1[C@@H]1O[C@H](CO)[C@@H](O)[C@H]1O [Zebularine] + Nc1nc2[nH]cc(CCc3ccc(C(=O)N[C@@H](CCC(=O)O)C(=O)O)cc3)c2c(=O)[nH]1 [Pemetrexed] (partner 0.2 µM)
In short: as §1

Zebularine + Olaparib = compound: O=c1ncccn1[C@@H]1O[C@H](CO)[C@@H](O)[C@H]1O [Zebularine] + O=C(c1cc(Cc2n[nH]c(=O)c3ccccc23)ccc1F)N1CCN(C(=O)C2CC2)CC1 [Olaparib] (partner 8 µM)
In short: as §1

| Cell Line | relative viability (BI-D1870 + Linsitinib; first compound 0.04 µM) | relative viability (BI-D1870 + Linsitinib; first compound 0.1265 µM) | relative viability (BI-D1870 + Linsitinib; first compound 0.4 µM) | relative viability (BI-D1870 + Linsitinib; first compound 1.265 µM) | relative viability (BI-D1870 + Linsitinib; first compound 4 µM) | relative viability (Zebularine + Crizotinib; first compound 1 µM) | relative viability (Zebularine + Crizotinib; first compound 3.162 µM) | relative viability (Zebularine + Crizotinib; first compound 10 µM) | relative viability (Zebularine + Crizotinib; first compound 31.62 µM) | relative viability (Zebularine + Crizotinib; first compound 100 µM) | relative viability (Zebularine + Pemetrexed; first compound 1 µM) | relative viability (Zebularine + Pemetrexed; first compound 3.162 µM) | relative viability (Zebularine + Pemetrexed; first compound 10 µM) | relative viability (Zebularine + Pemetrexed; first compound 31.62 µM) | relative viability (Zebularine + Pemetrexed; first compound 100 µM) | relative viability (Zebularine + Olaparib; first compound 1 µM) | relative viability (Zebularine + Olaparib; first compound 3.162 µM) | relative viability (Zebularine + Olaparib; first compound 10 µM) | relative viability (Zebularine + Olaparib; first compound 31.62 µM) | relative viability (Zebularine + Olaparib; first compound 100 µM) |
| --- | --- | --- | --- | --- | --- | --- | --- | --- | --- | --- | --- | --- | --- | --- | --- | --- | --- | --- | --- | --- |
| NCI-H661 | 0.515 | 0.485 | 0.489 | 0.535 | 0.593 | 1.24 | 1 | 1.02 | 1.05 | 0.997 | 0.939 | 0.951 | 0.832 | 0.995 | 0.891 | 0.856 | 0.708 | 0.56 | 0.943 | 0.688 |
| HCC-15 | 0.89 | 0.751 | 0.772 | 0.92 | 0.713 | 1.02 | 0.761 | 0.586 | 0.769 | 0.219 | 0.23 | 0.213 | 0.201 | 0.219 | 0.186 | 0.864 | 0.652 | 0.465 | 0.371 | 0.307 |
| LCLC-103H | 1.17 | 1.02 | 1.05 | 1.36 | 1.06 | 1.07 | 1.11 | 0.867 | 1.07 | 0.862 | 0.459 | 0.443 | 0.388 | 0.504 | 0.443 | 0.839 | 0.829 | 0.597 | 0.632 | 0.637 |
| NCI-H441 | 0.871 | 0.429 | 0.481 | 0.493 | 0.518 | 0.874 | 0.657 | 0.289 | 0.173 | 0.219 | 0.274 | 0.248 | 0.302 | 0.185 | 0.166 | 0.568 | 0.41 | 0.32 | 0.227 | 0.24 |
| EPLC-272H | 1.22 | 1.15 | 1.34 | 1.22 | 1.14 | 0.969 |  |  | 0.839 | 0.685 | 0.36 | 0.331 |  | 0.342 | 0.264 | 0.955 | 0.774 |  | 0.66 | 0.41 |
